The subject of data set [1] is coronary blood flow. In words: coronary blood flow increasing action, measured in rabbits by the Langendorff method. More on the design: species or system rabbit. The text has this: The above-mentioned prior known derivatives of piperazine, however, have defects in that they are either too weak in the coronary blood flow increasing action [ED50 (mg)-the dose which can increase the coronary blood flow by 50%] or too strong in toxicity to be put to practical use as remedies for humans. Indeed, only one compound, trimetazidine dihydrochloride, [1-(2,3,4-trimethoxybenzyl)piperazine dihydrochloride)], is now being manufactured as a remedy for humans.
(§1) To illustrate one of the pharmacological effects of these compounds comparative experiments were carried out on the coronary blood flow increasing action, which was measured in rabbits by the Langendorff method, and on acute toxicity using the said trimetazidine as control, with the results being shown in Table 1. The Langendorff method was carried out according to the method described in Folia Pharmacologica Japonica, vol. 56, p. 1387 (1960), and the acute toxicity was measured by injection into the peritoneal cavities of mice.

Data set [2] in a line: acute toxicity by injection into the peritoneal cavities of mice. The following applies: in vivo. On the procedure: as §1

Where a name gives a salt, the structure may show the parent alone.

A word on the LD50: it is the dose expected to kill half of the subjects tested. Low readings indicate a more toxic substance, high ones a less toxic substance. With `COc1ccc(CN2CCN(CCC(c3ccccc3)c3ccccc3)CC2)c(OC)c1OC` [1-(3,3-diphenylpropyl)-4-(2,3,4-trimethoxybenzyl)-piperazinedihydrochloride], the “ED50 (coronary blood flow increasing action; dose which can increase the coronary blood flow by 50%)” value in data set [1] is listed as 0.02 mg. Also, the LD50 in data set [2] (mouse, ip) amounted to 100 mg/kg.

Consider `COc1ccc(CN2CCN(CCC(c3ccccc3)c3ccccc3)CC2)cc1OC.Cl.Cl` [1-(3,3-diphenylpropyl)-4-(3,4-dimethoxybenzyl)piperazine dihydrochloride], for which the “ED50 (coronary blood flow increasing action; dose which can increase the coronary blood flow by 50%)” value in data set [1] was 0.05 mg. The same molecule returned an LD50 in data set [2] (ip mouse) of 66 mg/kg.

For `COc1cc(CN2CCN(CCC(c3ccccc3)c3ccccc3)CC2)cc(OC)c1OC.Cl.Cl` [1-(3,3-diphenylpropyl)-4-(3,4,5-trimethoxybenzyl)piperazine dihydrochloride], in data set [1], the “ED50 (coronary blood flow increasing action; dose which can increase the coronary blood flow by 50%)” value is 0.06 mg. In data set [2] (ip mouse), this molecule gave an LD50 of 89 mg/kg.

As to `COc1ccc(CN2CCNCC2)c(OC)c1OC.Cl.Cl` [Trimetazidine, 1-(2,3,4-trimethoxybenzyl)piperazine dihydrochloride, reference compound], in data set [1], the “ED50 (coronary blood flow increasing action; dose which can increase the coronary blood flow by 50%)” value is recorded as 0.80 mg. The 50% lethal dose (LD50) in data set [2] (ip mouse) was determined as 390 mg/kg.

In the case of `Cl.Cl.c1ccc(CN2CCN(CCC(c3ccccc3)c3ccccc3)CC2)cc1` [1-(3,3-diphenylpropyl)-4-benzylpiperazine dihydrochloride], in data set [1], the “ED50 (coronary blood flow increasing action; dose which can increase the coronary blood flow by 50%)” value amounted to 0.08 mg. The LD50 in data set [2] (ip mouse) was 101 mg/kg.

The values are drawn from patent US3957790A, “N-(3,3-diphenylpropyl)-n'-aralkyl-substituted piperazines” (Tokyo Tanabe Company, Ltd., priority 1974, dated 1976).
